Columns and labels:
[1] = tested on: human skin (forearms of 10 panelists); assay: Conductance measuring test; format: in vivo; details: for Conductance 30 min-after / Conductance 60 min-after / Conductance 120 min-after: 10% aqueous solution; for Conductance 30 min-after: 30 minutes after application; for Conductance 60 min-after: 60 minutes after application; for Conductance 120 min-after: 120 minutes after application
Protocol: (i) Conductance Measuring Test
Using forearms of 10 panelists, the skin conductance was measured before application and for 30 minutes, 60 minutes and 120 minutes after application, and the moisturizing effect was evaluated from a change rate thereof. The change rate of the skin conductance is calculated by the following equation (II): Conductance change rate=[…].
The change rate can be used for study of the influences on a water-absorbing property and a moisture retaining ability of a keratin layer. When this change rate is small, there is increase in the moisture in a keratin layer, thus, it can be evaluated that the moisturizing effect is high.
The evaluation criteria of conductance measuring test is as follows: • {circumflex over (◯)}: The average of conductance change rate of 10 panelists is not less than 0 and less than 0.1 • ◯: The average of conductance change rate of 10 panelists is not less than 0.1 and less than 0.2 • Δ: The average of conductance change rate of 10 panelists is not less than 0.2 and less than 0.5 • X: The average of conductance change rate of 10 panelists is not less than 0.5

human skin [2] = assay: Evaluation No.(3): Moisturizing Effect Feeling; format: in vivo; details: compound 5% by weight in basic composition A
Protocol: (iv) Evaluation No.(3): Moisturizing Effect Feeling Practical test on the presence or absence of the moisturizing effect feeling for 120 minutes after use was performed by using 10 special panelists. The evaluation criteria is as follows: • {circumflex over (◯)}: Not less than 8 special panelists recognized that there was the moisturizing effect feeling. • ◯: Not less than 6 and less than 8 special panelists recognized that there was the moisturizing effect feeling. • Δ: Not less than 3 and less than 6 special panelists recognized that there was the moisturizing effect feeling. • X: Less than 3 special panelists recognized that there was the moisturizing effect feeling.

[3] = tested on: human skin (medial parts of brachiums); assay: Evaluation No.(7): Skin Stimulation Test B (smart feeling); format: in vivo
Protocol: (viii) Evaluation No.(7): Skin Stimulation Test B
A smart feeling when a sample applied on medial parts of brachiums of 10 panelists was graded based on the following criteria and, thereafter, an average was calculated: • 0: No smart feeling is perceived. • 1: Slight smart feeling or redness is perceived. • 2: Smart feeling or redness is perceived. • 3: Smart feeling and redness are perceived.
(§1) The evaluation criteria of skin stimulation test B is as follows: • {circumflex over (◯)}: The average of 10 panelists is not less than 0 and less than 0.1 • ◯: The average of 10 panelists is not less than 0.1 and less than 0.15 • Δ: The average of 10 panelists is not less than 0.15 and less than 0.2 • X: The average of 10 panelists is not less than 0.2

human skin [4] = assay: Evaluation No.(8): Refreshing Effect Durability; format: in vivo; details: for Refreshing feeling (8): basic composition B
Protocol: (ix) Evaluation No.(8): Refreshing Effect Durability A presence or absence of refreshing feeling for 120 minutes after use was evaluated by 10 special panelists. The evaluation criteria is as follows: • {circumflex over (◯)}: Not less than 8 special panelists recognized that there was refreshing feeling durability. • ◯: Not less than 6 and less than 8 special panelists recognized that there was refreshing feeling durability. • Δ: Not less than 3 and less than 6 special panelists recognized that there was refreshing feeling durability. • X: Less than 3 special panelists recognized that there was refreshing feeling durability.

rough skin on cheek = assay: Evaluation No.(4): Rough Skin Improving Effect Test; format: in vivo, human; details: compound 5% by weight in basic composition A
Protocol: (v) Evaluation No.(4): Rough Skin Improving Effect Test A rough skin improving effect test was performed by using 10 panelists having rough skin on cheek. According to a test schedule, different skin lotions were applied on left and right cheeks for 1 week, and the effect was determined on the next day after the last day of the test period. The evaluation criteria is as follows: • {circumflex over (◯)}: Not less than 8 panelists recognized that the rough skin was improved. • ◯: Not less than 6 and less than 8 panelists recognized that the rough skin was improved. • Δ: Not less than 3 and less than 6 panelists recognized that the rough skin was improved. • X: Less than 3 panelists recognized that the rough skin was improved.

[5] = tested on: human skin (medial parts of brachiums); assay: Evaluation No.(5): Skin Stimulation Test A (occluding patch); format: in vivo; details: compound 5% by weight in basic composition A
Protocol: (iv) Evaluation No.(5): Skin Stimulation Test A
Occluding patch was performed on medial parts of brachiums of 10 panelists for 24 hours and, thereafter, an average was calculated based on the following criteria: • 0: No abnormality is perceived. • 1: Slight redness is perceived. • 2: Redness is perceived. • 3: Redness and papula are perceived.
as §1, with “A” for “B”

Row | Molecule | Conductance 30 min-after [1] | Conductance 60 min-after [1] | Conductance 120 min-after [1] | Moisturizing Evol. No. (3) (human skin [2]; Table 2, 120 minutes after use) | Evaluation (3) moisturizing effect feeling (human skin [2]; Table 4) | Stimulation B (7) ([3]; Table 12, basic composition B, tested compound 5.0 wt %) | Stimulation B (7) ([3]; Table 13, Y/X study, basic composition B) | Stimulation B (7) ([3]; Table 14, basic composition B, tested compound 5.0 wt %) | Refreshing feeling (8) (human skin [4]; Table 12, tested compound 5.0 wt %) | Refreshing feeling (8) (human skin [4]; Table 13, Y/X study) | Refreshing feeling (8) (human skin [4]; Table 14, tested compound 5.0 wt %) | Rough skin Evol. No. (4) (rough skin on cheek; Table 2, applied 1 week) | Evaluation (4) rough skin improving effect (rough skin on cheek; Table 4) | Stimulation A Evol. No. (5) ([5]; Table 2, occluding patch 24 hours) | Evaluation (5) skin stimulation A ([5]; Table 4) | Stimulation B (7) ([3]; Table 11, tested compound 5.0 wt % in basic composition B (L-menthol 0.1)) | Refreshing feeling durability (8) (human skin [4]; Table 11, tested compound 5.0 wt % in basic composition B (L-menthol 0.1), 120 minutes after use) | Evaluation in conductance measuring (120 min after) ([1]; Table 7, 5% alone in ion-exchange water 95%)
1 | CC(O)CCO (stereo not drawn) [1,3-Butylene glycol] | Δ (The average of conductance change rate of 10 panelists is not less than 0.2 and less than 0.5) | Δ (The average of conductance change rate of 10 panelists is not less than 0.2 and less than 0.5) | Δ (The average of conductance change rate of 10 panelists is not less than 0.2 and less than 0.5) |  |  |  |  |  |  |  |  |  |  |  |  |  |  | 
2 | Polyoxyethylene (10) polyoxypropylene (10) dimethyl ether [Compound 2] |  |  |  | ⊚ (Not less than 8 special panelists recognized that there was the moisturizing effect feeling.) | ⊚ (Not less than 8 special panelists recognized that there was the moisturizing effect feeling.) | ⊚ (The average of 10 panelists is not less than 0 and less than 0.1) | ⊚ (The average of 10 panelists is not less than 0 and less than 0.1) | ⊚ (The average of 10 panelists is not less than 0 and less than 0.1) | ⊚ (Not less than 8 special panelists recognized that there was refreshing feeling durability.) | ⊚ (Not less than 8 special panelists recognized that there was refreshing feeling durability.) | ⊚ (Not less than 8 special panelists recognized that there was refreshing feeling durability.) | ⊚ (Not less than 8 panelists recognized that the rough skin was improved.) | ⊚ (Not less than 8 panelists recognized that the rough skin was improved.) | ⊚ (The average of 10 panelists is not less than 0 and less than 0.1) | ⊚ (The average of 10 panelists is not less than 0 and less than 0.1) |  |  | 
3 | OCC(O)CO [Glycerin] | ⊚ (The average of conductance change rate of 10 panelists is not less than 0 and less than 0.1) | ◯ (The average of conductance change rate of 10 panelists is not less than 0.1 and less than 0.2) | ◯ (The average of conductance change rate of 10 panelists is not less than 0.1 and less than 0.2) |  |  |  |  |  |  |  |  |  |  |  |  | Δ (The average of 10 panelists is not less than 0.15 and less than 0.2) | X (Less than 3 special panelists recognized that there was refreshing feeling durability.) | Δ (The average of conductance change rate of 10 panelists is not less than 0.2 and less than 0.5)

— patent US8153142B2, “Skin treatment composition” (Shiseido Co., Ltd., priority 2001, dated 2012)
